Legend:
[1] = biological target: T1, human orexin-1 receptor (hOX1R) (Homo sapiens, UniProt O43613); assay: Measurement of orexin antagonistic activity (intracellular Ca2+ fluorescence, FDSS) on hOX1R; assay type: cell-based; conditions: CHO cells forcibly expressing hOX1R; Fluo-4AM; ligand peptide (substituted human orexin-A) 300 pM; compound preincubated 30 minutes; read-out: IC50 Value OX1
T1 construct: expressed in transfected cells; host or cells: Chinese hamster ovary (CHO) cells
T1 sequence (O43613 1-425): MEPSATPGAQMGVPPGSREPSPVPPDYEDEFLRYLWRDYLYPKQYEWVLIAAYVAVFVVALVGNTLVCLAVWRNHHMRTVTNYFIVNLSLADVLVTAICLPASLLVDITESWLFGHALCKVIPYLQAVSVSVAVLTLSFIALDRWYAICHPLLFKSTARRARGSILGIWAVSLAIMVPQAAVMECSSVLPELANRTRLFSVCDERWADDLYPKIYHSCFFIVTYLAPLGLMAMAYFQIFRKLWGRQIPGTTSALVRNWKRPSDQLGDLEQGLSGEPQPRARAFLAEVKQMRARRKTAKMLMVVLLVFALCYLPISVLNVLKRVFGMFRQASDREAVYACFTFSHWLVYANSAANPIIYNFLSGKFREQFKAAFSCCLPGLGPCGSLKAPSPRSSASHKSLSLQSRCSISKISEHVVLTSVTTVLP
Experimental: (§1) The antagonistic activities of the test compounds on human orexin-1 receptor (hOX1R) and orexin-2 receptor (hOX2R) were measured by modifying from the method described in literature (Toshikatsu Okumura et al., Biochemical and Biophysical Research Communications, 280, 976-981, 2001). Chinese hamster ovary (CHO) cells forcibly expressing the hOX1R and hOX2R were seeded into a 96 well Black clear bottom plate (Nunc) at 20,000 cells per well, which were cultured in Ham's F-12 medium containing 0.1 mM MEM non-essential amino acids, 0.5 mg/mL G418, 10% fetal bovine serum (all by Invitrogen) for 16 hours under the conditions of 37° C., 5% CO2. After removing the medium, 100 μL of 0.5 μM Fluo-4AM ester (Dojin) in an assay buffer (25 mM HEPES (Dojin), Hank's balanced salt solution (Invitrogen), 0.1% bovine serum albumin, 2.5 mM probenecid, 200 μg/mL Amaranth (all by Sigma-Aldrich), pH 7.4) was added and the cells were incubated for 60 minutes at 37° C., 5% CO2. After removing the assay buffer containing fluo-4AM ester, the test compound was dissolved in dimethyl sulfoxide to be 10 mM and diluted with the assay buffer, 150 μL, of which was added and incubated for 30 minutes.
(§2) The reaction was measured for the fluorescence intensity of each well every second for 3 minutes using Functional Drug Screening System (FDSS; Hamamatsu Photonics K.K.), and the antagonistic activity was determined using the maximum fluorescence intensity as the indicator of intracellular Ca2+ concentration.

[2] = biological target: T2, orexin-2 receptor (hOX2R) (Homo sapiens, UniProt O43614); assay: Measurement of orexin antagonistic activity (intracellular Ca2+ fluorescence, FDSS) on hOX2R; assay type: cell-based; conditions: CHO cells forcibly expressing hOX2R; Fluo-4AM; ligand peptide (substituted human orexin-A) 3 nM; compound preincubated 30 minutes; read-out: IC50 Value OX2
T2 construct: expressed in transfected cells; host or cells: Chinese hamster ovary (CHO) cells
T2 sequence (O43614 1-444): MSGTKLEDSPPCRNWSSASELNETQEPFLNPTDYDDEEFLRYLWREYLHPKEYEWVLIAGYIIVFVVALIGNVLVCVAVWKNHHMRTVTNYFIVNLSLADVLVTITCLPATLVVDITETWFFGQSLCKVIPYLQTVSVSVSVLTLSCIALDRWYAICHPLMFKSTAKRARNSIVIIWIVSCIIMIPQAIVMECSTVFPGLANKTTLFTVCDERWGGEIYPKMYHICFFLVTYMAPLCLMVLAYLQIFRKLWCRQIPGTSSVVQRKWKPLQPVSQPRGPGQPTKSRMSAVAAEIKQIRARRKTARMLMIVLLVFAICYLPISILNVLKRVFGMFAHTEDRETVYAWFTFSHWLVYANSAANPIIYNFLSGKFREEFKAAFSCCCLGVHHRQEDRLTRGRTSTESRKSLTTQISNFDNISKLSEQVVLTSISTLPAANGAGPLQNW
Experimental: as §1, §2

| SMILES | IC50 [1] | IC50 [2] |
| --- | --- | --- |
| CCN(C(=O)c1cc(F)ccc1-n1nccn1)[C@@H](C)Cn1nnc(-c2ccc(F)cn2)n1 [Example 87, N-Ethyl-5-fluoro-N-{(2S)-1-[5-(5-fluoropyridin-2-yl)-2H-tetrazol-2-yl]propan-2-yl}-2-(2H-1,2,3-triazol-2-yl)benzamide] | 9.8 nM | 283 nM |
| CCN(C(=O)c1cc(C)ccc1-n1nccn1)[C@@H](C)Cn1cc(-c2ccc(F)cn2)nn1 [Example 82, N-Ethyl-N-{(2S)-1-[4-(5-fluoropyridin-2-yl)-1H-1,2,3-triazol-1-yl]propan-2-yl}-5-methyl-2-(2H-1,2,3-triazol-2-yl)benzamide] | 2.2 nM | 13.3 nM |
| CCN(C(=O)c1cc(F)ccc1-c1ncccn1)[C@@H](C)Cn1cc(-c2ccc(F)cn2)cn1 [Example 34, N-Ethyl-5-fluoro-N-{(2S)-1-[4-(5-fluoropyridin-2-yl)-1H-pyrazol-1-yl]propan-2-yl}-2-(pyrimidin-2-yl)benzamide] | 9.8 nM | 334 nM |
| CCN(C(=O)c1cc(C)ccc1-n1nccn1)[C@@H](C)Cn1cc(-c2cccc(C)c2)nn1 [Example 97, N-Ethyl-5-methyl-N-{(2S)-1-[4-(3-methylphenyl)-1H-1,2,3-triazol-1-yl]propan-2-yl}-2-(2H-1,2,3-triazol-2-yl) benzamide] | 2.4 nM | 21.3 nM |
| CCN(C(=O)c1cc(F)ccc1-c1ncccn1)[C@@H](C)Cn1ccc(-c2ccc(F)cn2)n1 [Example 8, N-Ethyl-5-fluoro-N-[(2S)-1-[3-(5-fluoropyridin-2-yl)-1H-pyrazol-1-yl]propan-2-yl]-2-(pyrimidin-2-yl) benzamide] | 1.5 nM | 35.3 nM |
| Cc1ccc(-n2nccn2)c(C(=O)N(C)[C@@H](C)Cn2cc(-c3ccc(F)cn3)cn2)c1 [Example 22, N-{(2S)-1-[4-(5-Fluoropyridin-2-yl)-1H-pyrazol-1-yl]propan-2-yl}-N,5-dimethyl-2-(2H-1,2,3-triazol-2-yl) benzamide] | 3.8 nM | 52.9 nM |
| CCN(C(=O)c1cc(C)ccc1-n1nccn1)[C@@H](C)Cn1cc(-c2cccc(O)c2)nn1 [Example 93, N-Ethyl-N-{(2S)-1-[4-(3-hydroxyphenyl)-1H-1,2,3-triazol-1-yl]propan-2-yl}-5-methyl-2-(2H-1,2,3-triazol-2-yl)benzamide] | 1.4 nM | 7.4 nM |
| C[C@@H](Cn1cc(-c2ccc(F)cc2)cn1)N(C)C(=O)c1cc(F)ccc1-c1ncccn1 [Example 32, 5-Fluoro-N-{(2S)-1-[4-(4-fluorophenyl)-1H-pyrazol-1-yl]propan-2-yl}-N-methyl-2-(pyrimidin-2-yl)benzamide] | 20.7 nM | 96.9 nM |
| CCN(C(=O)c1cc(C)ccc1-n1nccn1)[C@@H](C)Cn1cc(-c2cccc(F)c2)nn1 [Example 98, N-Ethyl-N-{(2S)-1-[4-(3-fluorophenyl)-1H-1,2,3-triazol-1-yl]propan-2-yl}-5-methyl-2-(2H-1,2,3-triazol-2-yl) benzamide] | 6.3 nM | 9.8 nM |
| CCN(C(=O)c1ccccc1-n1nccn1)[C@@H](C)Cn1nnc(-c2ccc(F)cc2)n1 [Example 67] | 1.8 nM | 75.9 nM |
| CCN(C(=O)c1nc(C)ccc1-n1nccn1)[C@@H](C)Cn1cc(-c2ccc(F)cc2)nn1 [Example 83, N-Ethyl-N-{(2S)-1-[4-(4-fluorophenyl)-1H-1,2,3-triazol-1-yl]propan-2-yl}-6-methyl-3-(2H-1,2,3-triazol-2-yl)pyridine-2-carboxamide] | 9.9 nM | 308 nM |
| CCN(C(=O)c1cc(F)ccc1-n1nccn1)[C@@H](C)Cn1nnc(-c2ccc(F)cc2)n1 [Example 66, N-Ethyl-5-fluoro-N-{(2S)-1-[5-(4-fluorophenyl)-2H-tetrazol-2-yl]propan-2-yl}-2-(2H-1,2,3-triazol-2-yl) benzamide] | 1.6 nM | 129 nM |
| CCN(C(=O)c1nc(C)ccc1-n1nccn1)[C@@H](C)Cn1ccc(-c2ccc(F)c(F)c2)n1 [Example 16, N-[(2S)-1-[3-(3,4-Difiuorophenyl)-1H-pyrazol-1-yl]propan-2-yl]-N-ethyl-6-methyl-3-(2H-1,2,3-triazol-2-yl)pyridine-2-carboxamide] | 1.8 nM | 9.7 nM |
| Cc1ccc(-c2ncccn2)c(C(=O)N(C)[C@@H](C)Cc2noc(-c3ccc(F)cn3)n2)c1 [Example 46, N-{(2S)-1-[5-(5-Fluoropyridin-2-yl)-1,2,4-oxadiazol-3-yl]propan-2-yl}-N,5-dimethyl-2-(pyrimidin-2-yl)benzamide] | 21.6 nM |  |
| C[C@@H](Cn1ccc(-c2ccc(F)cn2)n1)N(C)C(=O)c1cc(F)ccc1-c1ncccn1 [Example 5, 5-Fluoro-N-{(2S)-1-[3-(5-fluoropyridin-2-yl)-1H-pyrazol-1-yl]propan-2-yl}-N-methyl-2-(pyrimidin-2-yl)benzamide] |  | 75.5 nM |

Second part, the compound after the results:

| IC50 [1] | IC50 [2] | SMILES |
| --- | --- | --- |
| 1.2 nM | 18 nM | CCN(C(=O)c1nc(C)ccc1-c1ncccn1)[C@@H](C)Cn1ccc(-c2ccc(F)cc2)n1 [Example 15, N-Ethyl-N-[(2S)-1-[3-(4-fluorophenyl)-1H-pyrazol-1-yl]propan-2-yl}-6-methyl-3-(pyrimidin-2-yl)pyridine-2-carboxamide] |
| 0.9 nM | 28.2 nM | CCN(C(=O)c1cc(C)ccc1-c1ncccn1)[C@@H](C)Cc1noc(-c2ccc(F)cn2)n1 [Example 48, N-Ethyl-N-{(2S)-1-[5-(5-fluoropyridin-2-yl)-1,2,4-oxadiazol-3-yl]propan-2-yl}-5-methyl-2-(pyrimidin-2-yl)benzamide] |
| 1 nM | 1.1 nM | CCN(C(=O)c1cc(C)ccc1-n1nccn1)[C@@H](C)Cn1ccc(-c2ccc(F)cn2)n1 [Example 1, N-Ethyl-N-{(2S)-1-[3-(5-fluoropyridin-2-yl)-1H-pyrazol-1-yl]propan-2-yl}-5-methyl-2-(2H-1,2,3-triazol-2-yl)benzamide] |
| 0.7 nM | 3.3 nM | CCN(C(=O)c1cc(C)ccc1-n1nccn1)[C@@H](C)Cc1noc(-c2ccc(F)cc2)n1 [Example 61] |
| 1.4 nM | 12.4 nM | COCCN(C(=O)c1cc(C)ccc1-n1nccn1)[C@@H](C)Cn1ccc(-c2ccc(F)cn2)n1 [Example 40, N-{(2S)-1-[3-(5-Fluoropyridin-2-yl)-1H-pyrazol-1-yl]propan-2-yl]}-N-(2-methoxyethyl-5-methyl-2-(2H-1,2,3-triazol-2-yl)benzamide] |
| 0.5 nM | 10.1 nM | Cc1ccc(-n2nccn2)c(C(=O)N(C)[C@@H](C)Cc2noc(-c3ccc(F)cc3)n2)c1 [Example 59, N-{(2S)-1-[5-(4-Fluorophenyl)-1,2,4-oxadiazol-3-yl]propan-2-yl}-N,5-dimethyl-2-(2H-1,2,3-triazol-2-yl) benzamide] |
| 1.3 nM | 13.1 nM | CCN(C(=O)c1cc(C)ccc1-n1nccn1)C(C)Cc1cnn(-c2ccc(F)cn2)c1 (centres unmarked) [Example 74, N-Ethyl-N-{1-[1-(5-fluoropyridin-2-yl)-1H-pyrazol-4-yl]propan-2-yl}-5-methyl-2-(2H-1,2,3-triazol-2-yl)benzamide] |
| 1.1 nM | 5.8 nM | Cc1ccc(-n2nccn2)c(C(=O)N(C)[C@@H](C)Cn2ccc(-c3ccc(F)cn3)n2)c1 [Example 19, N-{(2S)-1-[3-(5-Fluoropyridin-2-yl)-1H-pyrazol-1-yl]propan-2-yl}-N,5-dimethyl-2-(2H-1,2,3-triazol-2-yl) benzamide] |
